Laboratory results: patent US11548888B2, “KRas G12C inhibitors” (Mirati Therapeutics, Inc., priority 2019, dated 2023)
pIC50: −log10 of the molar value.

Biological target: T1, KRas G12C (Homo sapiens, UniProt P01116, G12C)
T1 construct: NCI-H358 cells (ATCC CRL-5807) express KRas G12C
Test: Inhibition of KRas G12C-dependent cell growth: Phospho-ERK in NCI-H358 cells
Type: cell-based
Conditions: NCI-H358 cells expressing KRas G12C; Phospho-ERK (Thr202/Tyr204) normalized to GAPDH; 3 hours compound; 4 parameter fit
Procedure, shortened: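 NCI-H358 cells (KRas G12C) exposed to compounds for 3 h, 0.5% DMSO final. Fixed cells immunostained for pERK(Thr202/Tyr204) and GAPDH with infrared secondary antibodies. pERK normalized to GAPDH, expressed as percent of DMSO control; IC50 from 4-parameter dose-response fit.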

T1 sequence (P01116 1-188 isoform P01116-2 G12C): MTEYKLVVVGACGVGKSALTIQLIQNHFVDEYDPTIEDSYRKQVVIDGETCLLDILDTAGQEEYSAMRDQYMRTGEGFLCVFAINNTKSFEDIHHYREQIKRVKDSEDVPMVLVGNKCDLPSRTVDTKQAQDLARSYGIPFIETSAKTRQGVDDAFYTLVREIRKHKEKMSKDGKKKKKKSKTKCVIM

`C#Cc1cccc2cncc(-c3ncc4c(N5C[C@@H]6[C@H]5CCN6C(=O)C=C)ncnc4c3F)c12` [Example 295] was tested. Which pIC50 did it give?
Its pIC50 is 6.38.

`C#Cc1cccc2cccc(-c3ncc4c(N5C[C@@H]6[C@H]5CCN6C(=O)C=C)nc(N5CC(N(C)C)C5)nc4c3F)c12` [Example 298] was tested. Which pIC50 did it give?
The pIC50 was 7.62.

`CC(C)(C)N1CCC1COc1nc(N2CCN(C(=O)/C=C/CF)[C@@H](CC#N)C2)c2cnc(-c3cccc4cccc(Cl)c34)c(F)c2n1` (some centres unmarked) [Example 66] was tested. Which pIC50 did it give?
Its pIC50 is 7.92.

With `C=CC(=O)N1CCN(c2nc(OC)nc3c(F)c(-c4cccc5ccc(F)c(Cl)c45)ncc23)C[C@@H]1CC#N` [Example 136] as the compound, how does the pIC50 read?
The pIC50 was 7.04.

How did the pIC50 turn out when `C=CC(=O)N1CCN(c2ncnc3c(F)c(-c4cccc5ccc(F)cc45)ncc23)C[C@@H]1CC#N` [Example 197] was run?
The pIC50 was 6.78.

How did the pIC50 turn out when `C=CC(=O)N1CC2(CCN(c3nc(OC[C@@H]4CCCN4C)nc4c(F)c(-c5cccc6cccc(Cl)c56)ncc34)CC2)C1` [Example 85] was run?
Its pIC50 is 6.28.

How did the pIC50 turn out when `C=CC(=O)N1CC2(CCN(c3nc(OC[C@@H]4CCCN4C)nc4c(F)c(-c5c(C)ccc6[nH]ncc56)ncc34)CC2)C1` [Example 83] was run?
Its pIC50 is 5.46.

With `O=C(/C=C/CF)N1CC[C@@H]2[C@H]1CN2c1ncnc2c(F)c(-c3cccc4ccc(F)c(Cl)c34)ncc12` [Example 221] as the compound, how does the pIC50 read?
Its pIC50 is 5.71.

With `C=C(F)C(=O)N1CCN(c2nc(OC[C@@H]3CCCN3C)nc3c(F)c(-c4cccc5cnn(C)c45)ncc23)C[C@@H]1CC#N` [Example 84] as the compound, how does the pIC50 read?
The pIC50 was 6.12.

How did the pIC50 turn out when `C=CC(=O)N1CCC12CCN(c1ncnc3c(F)c(-c4cccc5ccc(F)c(Cl)c45)ncc13)C2` (centres unmarked) [Example 235] was run?
Its pIC50 is 5.00.

`C=C(F)C(=O)N1CCN(c2nc(OC[C@@H]3CCCN3C)nc3c(F)c(-c4cccc5cccc(C)c45)ncc23)C[C@@H]1CC#N` [Example 11, 2-[(2S)-4-[8-fluoro-7-(8-methyl-1-naphthyl)-2-[[(2S)-1-methylpyrrolidin-2-yl]methoxy]pyrido[4,3-d]pyrimidin-4-yl]-1-(2-fluoroprop-2-enoyl)piperazin-2-yl]acetonitrile] was tested. Which pIC50 did it give?
Its pIC50 is 7.08.

How did the pIC50 turn out when `C=CC(=O)N1CC[C@@H]2[C@H]1CN2c1ncnc2c(F)c(-c3c(O)ccc4ccccc34)ncc12` [Example 281] was run?
Its pIC50 is 5.63.

How did the pIC50 turn out when `C=C(F)C(=O)N1CCN(c2nc(OC3CCN(C4CCOCC4)CC3)nc3c(F)c(-c4cccc5cccc(Cl)c45)ncc23)C[C@@H]1CC#N` [Example 64] was run?
The pIC50 was 6.42.

`C=C(F)C(=O)N1CCN(c2nc(OC[C@@H]3C[C@@H](F)CN3C)nc3c(F)c(-c4cncc5cccc(Cl)c45)ncc23)C[C@@H]1CC#N` [Example 52, 2-[(2S)-4-[7-(5-chloro-4-isoquinolyl)-8-fluoro-2-[[(2S,4R)-4-fluoro-1-methyl-pyrrolidin-2-yl]methoxy]pyrido[4,3-d]pyrimidin-4-yl]-1-(2-fluoroprop-2-enoyl)piperazin-2-yl]acetonitrile] was tested. Which pIC50 did it give?
Its pIC50 is 7.64.

With `C=C(F)C(=O)N1CCN(c2nc(OC[C@@H]3C[C@H](F)CN3C)nc3c(F)c(-c4cccc5ccc(F)c(Cl)c45)ncc23)C[C@@H]1CC#N` [Example 166] as the compound, how does the pIC50 read?
The pIC50 was 7.59.

How did the pIC50 turn out when `C=CC(=O)N1CCN(c2nc(OC[C@@H]3CCCN3C)nc3c(F)c(-c4cccc5ccc(F)c(Cl)c45)ncc23)[C@@H](C)C1` [Example 119] was run?
The pIC50 was 7.41.

With `C=C(F)C(=O)N1CCN(c2ncnc3c(F)c(-c4cc(O)cc5ccccc45)ncc23)C[C@@H]1CC#N` [Example 162] as the compound, how does the pIC50 read?
Its pIC50 is 6.23.

With `C=CC(=O)N1C[C@@H]2[C@H]1CCN2c1nc(OC[C@@H]2CCCN2C)nc2c(F)c(-c3cccc4ccc(F)c(Cl)c34)ncc12` [Example 228] as the compound, how does the pIC50 read?
Its pIC50 is 6.64.

How did the pIC50 turn out when `C=C(F)C(=O)N1CCN(c2nc(OC3CCN(C)CC3)nc3c(F)c(-c4cccc5cccc(Cl)c45)ncc23)C[C@@H]1CC#N` [Example 70] was run?
The pIC50 was 6.34.

With `C=C(F)C(=O)N1CCN(c2nc(O[C@H](C)CN(C)C)nc3c(F)c(-c4cccc5cccc(Cl)c45)ncc23)C[C@@H]1CC#N` [Example 73] as the compound, how does the pIC50 read?
Its pIC50 is 6.23.

How did the pIC50 turn out when `C=CC(=O)N1CCN(c2nc(OC[C@@H]3CCCN3C)nc3c(F)c(-c4nc(N)ccc4Cl)ncc23)CC1` [Example 103] was run?
The pIC50 was 5.00.

How did the pIC50 turn out when `C=CC(=O)N1CC[C@@H]2[C@H]1[C@@H](C)N2c1ncnc2c(F)c(-c3cccc4ccc(F)c(Cl)c34)ncc12` [Example 279] was run?
The pIC50 was 6.39.

How did the pIC50 turn out when `C=C(F)C(=O)N1CCN(c2nc(OC[C@@H]3CCN(C)C3)nc3c(F)c(-c4cccc5ccc(F)c(Cl)c45)ncc23)C[C@@H]1CC#N` [Example 169] was run?
Its pIC50 is 7.22.

`C#Cc1c(F)ccc2cccc(-c3ncc4c(N5C[C@@H]6[C@H]5CCN6C(=O)C=C)nc(N5CC(N(C)C)C5)nc4c3F)c12` [Example 297] was tested. Which pIC50 did it give?
The pIC50 was 8.40.

How did the pIC50 turn out when `C=C(F)C(=O)N1CCN(c2nc(OC[C@@H]3C[C@@H](OC)CN3C)nc3c(F)c(-c4cccc5cccc(Cl)c45)ncc23)C[C@@H]1CC#N` [Example 22, 2-[(2S)-4-[7-(8-chloro-1-naphthyl)-8-fluoro-2-[[(2S,4R)-4-methoxy-1-methyl-pyrrolidin-2-yl]methoxy]pyrido[4,3-d]pyrimidin-4-yl]-1-(2-fluoroprop-2-enoyl)piperazin-2-yl]acetonitrile] was run?
Its pIC50 is 7.42.

`C=CS(=O)(=O)N1CCN(c2ncnc3c(F)c(-c4cccc5ccc(F)c(Cl)c45)ncc23)CC1` [Example 205] was tested. Which pIC50 did it give?
The pIC50 was 5.00.

With `C=CC(=O)N1CCN(c2ncnc3c(F)c(-c4cc(C#N)cc5ccccc45)ncc23)CC1` [Example 256] as the compound, how does the pIC50 read?
Its pIC50 is 5.00.

How did the pIC50 turn out when `C=C(F)C(=O)N1CCN(c2nc(OC[C@@H]3CCCN3C)nc3c(F)c(-c4cccc5cccc(Cl)c45)ncc23)[C@H](C)C1` [Example 76] was run?
Its pIC50 is 5.52.

`C=C(F)C(=O)N1CCN(c2nc(OCCCN3C[C@@H]4C[C@H]3CO4)nc3c(F)c(-c4cccc5cccc(Cl)c45)ncc23)C[C@@H]1CC#N` [Example 29, 2-[(2S)-4-[7-(8-chloro-1-naphthyl)-8-fluoro-2-[3-[(1S,4S)-2-oxa-5-azabicyclo[2.2.1]heptan-5-yl]propoxy]pyrido[4,3-d]pyrimidin-4-yl]-1-(2-fluoroprop-2-enoyl)piperazin-2-yl]acetonitrile] was tested. Which pIC50 did it give?
Its pIC50 is 7.07.

With `C=C(F)C(=O)N1CCN(c2nc(OC[C@@H]3CCCN3C)nc3c(C#N)c(-c4cccc5cccc(C)c45)ncc23)C[C@@H]1CC#N` [Example 58, 4-[(3S)-3-(cyanomethyl)-4-(2-fluoroprop-2-enoyl)piperazin-1-yl]-7-(8-methyl-1-naphthyl)-2-[[(2S)-1-methylpyrrolidin-2-yl]methoxy]pyrido[4,3-d]pyrimidine-8-carbonitrile] as the compound, how does the pIC50 read?
Its pIC50 is 6.48.

`C=C(F)C(=O)N1CCN(c2nc(OCCCN3C[C@@H]4C[C@H]3CO4)nc3c(F)c(-c4cccc5cccc(C)c45)ncc23)C[C@@H]1CC#N` [Example 28, 2-[(2S)-4-[8-fluoro-7-(8-methyl-1-naphthyl)-2-[3-[(1S,4S)-2-oxa-5-azabicyclo[2.2.1]heptan-5-yl]propoxy]pyrido[4,3-d]pyrimidin-4-yl]-1-(2-fluoroprop-2-enoyl)piperazin-2-yl]acetonitrile] was tested. Which pIC50 did it give?
Its pIC50 is 6.59.

With `C#Cc1cccc2cc(O)cc(-c3ncc4c(N5C[C@@H]6[C@H]5CCN6C(=O)C=C)nc(OCC56CCCN5CCC6)nc4c3F)c12` [Example 293, 1-((1R, 5R)-6-(7-(8-ethynyl-3-hydroxynaphthalen-1-yl)-8-fluoro-2-((tetrahydro-1H-pyrrolizin-7a(5H)-yl)methoxy)pyrido[4,3-d]pyrimidin-4-yl)-2,6-diazabicyclo[3.2.0]heptan-2-yl)prop-2-en-1-one] as the compound, how does the pIC50 read?
The pIC50 was 7.19.

`C=CC(=O)N1CC[C@@H]2[C@H]1CN2c1ncnc2c(F)c(-c3cccc4cccc(CC)c34)ncc12` [Example 303, 1-((1R, 5R)-6-(7-(8-ethylnaphthalen-1-yl)-8-fluoropyrido[4,3-d]pyrimidin-4-yl)-2,6-diazabicyclo[3.2.0]heptan-2-yl)prop-2-en-1-one] was tested. Which pIC50 did it give?
The pIC50 was 6.15.

With `C=CC(=O)N1CCN(c2ncnc3c(F)c(-c4cccc5ccc(F)c(Cl)c45)ncc23)CC1` [Example 134] as the compound, how does the pIC50 read?
Its pIC50 is 5.00.

With `C#Cc1cccc2cc(Cl)cc(-c3ncc4c(N5C[C@@H]6[C@H]5CCN6C(=O)C=C)ncnc4c3F)c12` [Example 294, 1-((1R,5R)-6-(7-(3-chloro-8-ethynylnaphthalen-1-yl)-8-fluoropyrido[4,3-d]pyrimidin-4-yl)-2,6-diazabicyclo[3.2.0]heptan-2-yl)prop-2-en-1-one] as the compound, how does the pIC50 read?
Its pIC50 is 5.67.

How did the pIC50 turn out when `C=CC(=O)N1CCN(c2ncnc3cc(-c4cc(O)cc5ccccc45)ncc23)CC1C#N` (centres unmarked) [Example 2, 1-acryloyl-4-(7-(3-hydroxynaphthalen-1-yl)pyrido[4,3-d]pyrimidin-4-yl)piperazine-2-carbonitrile] was run?
The pIC50 was 6.49.

With `C=CC(=O)N1C[C@H]2[C@@H]1CCN2c1ncnc2c(F)c(-c3cccc4ccc(F)c(Cl)c34)ncc12` [Example 232] as the compound, how does the pIC50 read?
The pIC50 was 5.00.

How did the pIC50 turn out when `C=C(F)C(=O)N1CCN(c2nc(OCCc3cccc(N)c3)nc3c(F)c(-c4cccc5cccc(Cl)c45)ncc23)C[C@@H]1CC#N` [Example 82] was run?
Its pIC50 is 6.21.

With `C=CC(=O)N1CCCC12CCN(c1ncnc3c(F)c(-c4cccc5ccc(F)c(Cl)c45)ncc13)C2` (centres unmarked) [Example 233] as the compound, how does the pIC50 read?
Its pIC50 is 5.00.

`C#Cc1cccc2cccc(-c3ncc4c(N5CCN(C(=O)C=C)CC5)nc(OC[C@@H]5CCCN5C)nc4c3F)c12` [Example 213, (S)-1-(4-(7-(8-ethynylnaphthalen-1-yl)-8-fluoro-2-((1-methylpyrrolidin-2-yl)methoxy)pyrido[4,3-d]pyrimidin-4-yl)piperazin-1-yl)prop-2-en-1-one] was tested. Which pIC50 did it give?
Its pIC50 is 7.21.

With `C=C(F)C(=O)N1CCN(c2nc(OCCCN3C[C@@H]4C[C@H]3CO4)nc3c(F)c(-c4cccc5ccc(F)c(Cl)c45)ncc23)C[C@@H]1CC#N` [Example 129] as the compound, how does the pIC50 read?
The pIC50 was 7.14.
